For ten molecules, inhibition and IC50 results are on record in EP4592286A1, “MACROCYCLIC NITROGEN-CONTAINING CROWN ETHER COMPOUND AND USE THEREOF AS PROTEIN KINASE INHIBITOR” (Artivila Biopharma, priority 2022, dated 2024).

Assay type in all cases: biochemical
The target in one experiment is TYK2 (Homo sapiens, UniProt P29597). The experiment is described as follows: experiment of inhibiting kinase activity, TYK2. As to conditions: read-out: inhibition rate TYK2; for inhibition at 0.01 µM: at 10 nM; for inhibition at 0.1 µM: at 100 nM. As for the experimental part:
(§1) The inhibition rates of tested compounds on JAK1, JAK2, JAK3, TYK2, CDK7, CDK9, EGFR (T790M) and LRRK2 kinases were measured. The test concentrations of the compounds were 10 nM and 100 nM, and the detection was performed by replicate wells. Alternatively, compounds were 3-fold serial diluted from 10 µM for 10 concentrations in replicate wells.

For another experiment, the target named is LRRK2 (Homo sapiens, UniProt Q5S007). The experiment is described as follows: experiment of inhibiting kinase activity, LRRK2. As to conditions: for inhibition at 0.1 µM: at 100 nM; for inhibition at 0.1 µM / inhibition at 0.01 µM: read-out: inhibition rate LRRK2; for inhibition at 0.01 µM: at 10 nM; for IC50: kinase activity assay, Table 3. Here is the method: as §1
LRRK2, sequence (Q5S007 whole entry): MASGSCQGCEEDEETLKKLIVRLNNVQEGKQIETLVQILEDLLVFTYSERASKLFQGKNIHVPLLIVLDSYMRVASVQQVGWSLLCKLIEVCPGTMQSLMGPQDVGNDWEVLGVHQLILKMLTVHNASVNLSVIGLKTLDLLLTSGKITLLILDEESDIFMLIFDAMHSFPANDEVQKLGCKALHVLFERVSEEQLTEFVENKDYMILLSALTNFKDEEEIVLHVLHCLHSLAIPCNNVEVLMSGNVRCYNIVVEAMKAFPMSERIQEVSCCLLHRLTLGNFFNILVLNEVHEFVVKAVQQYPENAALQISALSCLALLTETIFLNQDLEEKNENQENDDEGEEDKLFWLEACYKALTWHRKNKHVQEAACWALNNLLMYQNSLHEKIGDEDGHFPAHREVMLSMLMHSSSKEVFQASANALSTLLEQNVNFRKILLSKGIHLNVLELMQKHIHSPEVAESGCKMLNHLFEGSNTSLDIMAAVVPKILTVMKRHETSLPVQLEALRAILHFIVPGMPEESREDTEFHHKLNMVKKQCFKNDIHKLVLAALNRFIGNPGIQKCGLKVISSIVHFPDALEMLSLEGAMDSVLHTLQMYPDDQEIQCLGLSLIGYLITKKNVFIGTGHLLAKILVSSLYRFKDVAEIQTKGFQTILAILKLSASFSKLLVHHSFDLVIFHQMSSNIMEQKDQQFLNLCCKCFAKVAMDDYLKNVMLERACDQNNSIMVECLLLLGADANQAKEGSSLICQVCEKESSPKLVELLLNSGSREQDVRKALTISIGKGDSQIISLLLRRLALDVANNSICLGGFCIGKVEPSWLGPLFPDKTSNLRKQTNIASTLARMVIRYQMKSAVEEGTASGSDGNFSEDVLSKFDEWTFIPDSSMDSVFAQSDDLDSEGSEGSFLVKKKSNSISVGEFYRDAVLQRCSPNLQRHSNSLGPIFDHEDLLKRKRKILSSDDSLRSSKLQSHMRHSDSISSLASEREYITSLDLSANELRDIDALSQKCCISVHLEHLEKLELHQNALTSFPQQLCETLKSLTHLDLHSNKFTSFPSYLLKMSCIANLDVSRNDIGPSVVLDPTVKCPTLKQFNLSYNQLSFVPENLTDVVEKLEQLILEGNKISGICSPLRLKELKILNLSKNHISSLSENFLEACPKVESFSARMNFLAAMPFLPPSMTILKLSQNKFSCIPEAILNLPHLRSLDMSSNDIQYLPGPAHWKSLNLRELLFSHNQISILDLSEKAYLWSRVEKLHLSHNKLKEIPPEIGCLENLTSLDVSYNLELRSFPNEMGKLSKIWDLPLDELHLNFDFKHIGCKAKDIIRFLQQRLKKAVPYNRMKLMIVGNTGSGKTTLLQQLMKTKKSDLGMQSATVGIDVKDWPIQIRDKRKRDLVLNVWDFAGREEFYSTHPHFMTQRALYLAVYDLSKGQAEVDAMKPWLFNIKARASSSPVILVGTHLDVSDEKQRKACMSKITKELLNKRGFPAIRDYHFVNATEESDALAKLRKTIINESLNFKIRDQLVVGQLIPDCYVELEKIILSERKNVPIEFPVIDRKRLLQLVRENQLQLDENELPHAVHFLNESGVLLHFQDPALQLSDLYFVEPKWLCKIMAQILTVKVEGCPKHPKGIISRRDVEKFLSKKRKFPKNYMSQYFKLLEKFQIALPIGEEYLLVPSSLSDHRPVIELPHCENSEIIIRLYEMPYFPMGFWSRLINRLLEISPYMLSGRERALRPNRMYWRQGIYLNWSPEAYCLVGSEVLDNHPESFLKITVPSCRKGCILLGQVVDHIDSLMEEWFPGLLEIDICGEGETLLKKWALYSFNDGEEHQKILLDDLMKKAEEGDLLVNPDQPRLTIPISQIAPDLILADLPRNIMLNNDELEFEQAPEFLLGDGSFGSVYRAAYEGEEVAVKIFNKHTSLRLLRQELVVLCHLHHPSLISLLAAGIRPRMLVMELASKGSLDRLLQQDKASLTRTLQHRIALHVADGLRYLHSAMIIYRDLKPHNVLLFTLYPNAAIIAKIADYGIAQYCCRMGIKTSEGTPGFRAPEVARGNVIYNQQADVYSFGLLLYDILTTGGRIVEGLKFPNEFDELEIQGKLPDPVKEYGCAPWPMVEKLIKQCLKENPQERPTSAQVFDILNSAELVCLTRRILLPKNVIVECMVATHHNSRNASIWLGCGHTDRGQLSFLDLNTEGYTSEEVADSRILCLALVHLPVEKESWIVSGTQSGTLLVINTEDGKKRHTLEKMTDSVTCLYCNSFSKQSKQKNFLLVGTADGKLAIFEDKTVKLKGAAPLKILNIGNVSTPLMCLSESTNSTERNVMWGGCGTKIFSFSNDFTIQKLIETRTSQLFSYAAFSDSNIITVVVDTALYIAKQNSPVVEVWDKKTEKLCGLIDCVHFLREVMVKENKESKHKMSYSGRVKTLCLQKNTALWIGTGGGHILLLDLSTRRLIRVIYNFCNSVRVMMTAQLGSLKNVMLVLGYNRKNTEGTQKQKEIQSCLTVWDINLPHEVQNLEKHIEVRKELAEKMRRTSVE

The target of the next experiment is T1, JAK3 (Homo sapiens, UniProt P52333).
T1 sequence (P52333 1-1124): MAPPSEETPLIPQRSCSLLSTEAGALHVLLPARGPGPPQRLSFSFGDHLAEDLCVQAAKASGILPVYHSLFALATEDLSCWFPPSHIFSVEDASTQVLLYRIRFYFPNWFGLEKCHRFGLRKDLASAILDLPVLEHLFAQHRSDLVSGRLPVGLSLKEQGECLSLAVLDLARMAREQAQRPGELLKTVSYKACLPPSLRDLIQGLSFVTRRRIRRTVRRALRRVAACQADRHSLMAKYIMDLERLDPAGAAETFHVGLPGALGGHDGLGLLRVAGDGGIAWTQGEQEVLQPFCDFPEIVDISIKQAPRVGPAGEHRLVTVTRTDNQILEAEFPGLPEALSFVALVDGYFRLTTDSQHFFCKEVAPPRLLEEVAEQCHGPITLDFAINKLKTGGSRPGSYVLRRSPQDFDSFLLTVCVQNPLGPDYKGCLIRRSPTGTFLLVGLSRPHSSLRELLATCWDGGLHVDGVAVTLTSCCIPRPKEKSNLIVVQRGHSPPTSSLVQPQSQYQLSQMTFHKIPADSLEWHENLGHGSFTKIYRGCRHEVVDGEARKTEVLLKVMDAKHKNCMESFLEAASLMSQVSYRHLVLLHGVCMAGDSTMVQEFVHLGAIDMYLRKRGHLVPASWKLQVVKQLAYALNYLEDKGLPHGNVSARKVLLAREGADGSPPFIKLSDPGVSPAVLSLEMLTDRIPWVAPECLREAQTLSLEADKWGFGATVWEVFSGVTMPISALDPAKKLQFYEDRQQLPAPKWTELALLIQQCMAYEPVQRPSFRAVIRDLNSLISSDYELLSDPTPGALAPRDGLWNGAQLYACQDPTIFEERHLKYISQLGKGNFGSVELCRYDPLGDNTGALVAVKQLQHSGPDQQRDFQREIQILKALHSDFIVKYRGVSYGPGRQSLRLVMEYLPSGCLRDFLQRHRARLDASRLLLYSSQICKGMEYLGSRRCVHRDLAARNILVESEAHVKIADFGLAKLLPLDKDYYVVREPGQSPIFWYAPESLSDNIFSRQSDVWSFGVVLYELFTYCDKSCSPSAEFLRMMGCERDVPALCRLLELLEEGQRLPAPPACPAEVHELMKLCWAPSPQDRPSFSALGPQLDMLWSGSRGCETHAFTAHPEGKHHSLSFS
The experiment is described as follows: experiment of inhibiting kinase activity (Caliper mobility shift assay), JAK3. As to conditions: for inhibition at 0.01 µM: at 10 nM; for inhibition at 0.01 µM / inhibition at 0.1 µM: read-out: inhibition rate JAK3; for inhibition at 0.1 µM: at 100 nM; for IC50: kinase activity assay, Table 3. Summed up: (§2)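 Steps: compound and kinase in 1× kinase buffer, 10 min at room temperature; ATP plus substrate added to start; reaction run at room temperature, then stopped. Conversion read by Caliper; IC50 from four-parameter variable-slope fit of % inhibition against log concentration.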

In another experiment the target is JAK2 (Homo sapiens, UniProt O60674). The experiment is described as follows: experiment of inhibiting kinase activity (Caliper mobility shift assay), JAK2. As to conditions: for inhibition at 0.01 µM: at 10 nM; for inhibition at 0.01 µM / inhibition at 0.1 µM: read-out: inhibition rate JAK2; for inhibition at 0.1 µM: at 100 nM; for IC50: kinase activity assay, Table 3. An outline of the steps: as §2

Another experiment addresses CDK7 (Homo sapiens, UniProt P50613). The experiment is described as follows: experiment of inhibiting kinase activity (Caliper mobility shift assay), CDK7. As to conditions: for inhibition at 0.1 µM: at 100 nM; for inhibition at 0.1 µM / inhibition at 0.01 µM: read-out: inhibition rate CDK7; for inhibition at 0.01 µM: at 10 nM. Here is the method:
as §1
(§3) The inhibitory effects of the compounds on JAK1, JAK2, JAK3, CDK7 and CDK9 kinases were detected by the method of Caliper mobility shift assay. 250 nL of the compound at 100-fold final concentration was transferred to a destination plate 384-well-plate by using a liquid handler Echo 550. A kinase solution at 2.5-fold final concentration was prepared with 1×kinase buffer. 10 µL of the kinase solution with 2.5-fold final concentration was added to compound wells and positive control wells; and 10 µL of 1×kinase buffer was added to negative control wells. The mixture was centrifuged at 1000 rpm for 30 seconds and then incubated at room temperature for 10 minutes. A mixed solution of ATP and kinase substrate at 5/3-fold final concentration was prepared with 1×kinase buffer, and 15 µL of the mixed solution of ATP and substrate at 5/3-fold final concentration was added to start the reaction. The 384-well plate was centrifuged at 1000 rpm for 30 seconds, shaked and mixed evenly, then incubated at room temperature for a corresponding time. 30 µL of stop solution was added to stop the kinase reaction, the mixture was centrifuged at 1000 rpm for 30 seconds, and shaked and mixed evenly. The conversion rate was read by Caliper EZ Reader. The conversion inhibition rate%=(average positive control conversion rate%-sample conversion rate%)/(average positive control conversion rate%-average negative control conversion rate%). Where negative control wells represent the conversion readings of the background well of kinase buffer; and positive control wells represent the conversion readings of wells without compound inhibition. With the log value of concentration as the x axis and the percentage inhibition rate as the y axis, the dose-response curve was fitted by the log (inhibitor) vs. response-variable slope of the analyzing softwar GraphPad Prism 5, and the IC50 values of each compound on enzyme activity were obtained. Calculation formula is as follows: y=Bottom+(Top-Bottom)/(1+10^((LogIC50-x)×hillslope)), where x is logarithm of inhibitor concentration; and Y is % inhibition rate.

The next experiment concerns the target JAK1 (Homo sapiens, UniProt P23458). The experiment is described as follows: experiment of inhibiting kinase activity (Caliper mobility shift assay), JAK1. As to conditions: at 100 nM; read-out: inhibition rate JAK1. Here is the method:
as §1, §3

CDK7, sequence (P50613 whole entry, species assumed): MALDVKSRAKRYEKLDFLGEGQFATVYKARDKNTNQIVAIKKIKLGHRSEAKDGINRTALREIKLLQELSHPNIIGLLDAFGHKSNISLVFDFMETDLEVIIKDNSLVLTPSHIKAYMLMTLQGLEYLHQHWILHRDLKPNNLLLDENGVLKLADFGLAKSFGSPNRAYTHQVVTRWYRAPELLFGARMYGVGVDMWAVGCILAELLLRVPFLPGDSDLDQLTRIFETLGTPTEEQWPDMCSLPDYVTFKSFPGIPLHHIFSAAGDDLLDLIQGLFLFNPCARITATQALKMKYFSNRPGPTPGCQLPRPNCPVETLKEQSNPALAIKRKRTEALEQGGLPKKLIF
CDK7, sequence (P51946 whole entry partner, species assumed): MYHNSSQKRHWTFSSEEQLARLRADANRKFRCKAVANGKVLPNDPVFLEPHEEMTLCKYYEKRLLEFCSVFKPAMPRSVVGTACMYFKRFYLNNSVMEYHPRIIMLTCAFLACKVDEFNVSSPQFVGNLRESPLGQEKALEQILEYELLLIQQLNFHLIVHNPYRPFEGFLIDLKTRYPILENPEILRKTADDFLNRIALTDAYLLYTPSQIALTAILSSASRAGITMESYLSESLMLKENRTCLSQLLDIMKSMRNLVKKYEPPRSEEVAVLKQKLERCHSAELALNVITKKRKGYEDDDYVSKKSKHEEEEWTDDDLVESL
CDK7, sequence (P51948 whole entry partner, species assumed): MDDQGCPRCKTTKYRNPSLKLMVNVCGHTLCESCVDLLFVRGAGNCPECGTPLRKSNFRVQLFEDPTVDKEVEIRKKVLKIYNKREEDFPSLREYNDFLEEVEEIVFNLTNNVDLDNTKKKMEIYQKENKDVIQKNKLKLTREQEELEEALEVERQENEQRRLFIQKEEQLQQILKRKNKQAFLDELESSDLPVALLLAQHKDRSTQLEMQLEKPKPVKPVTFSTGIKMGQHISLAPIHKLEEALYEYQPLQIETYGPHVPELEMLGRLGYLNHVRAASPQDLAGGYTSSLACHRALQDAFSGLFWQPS
TYK2, sequence (P29597 whole entry): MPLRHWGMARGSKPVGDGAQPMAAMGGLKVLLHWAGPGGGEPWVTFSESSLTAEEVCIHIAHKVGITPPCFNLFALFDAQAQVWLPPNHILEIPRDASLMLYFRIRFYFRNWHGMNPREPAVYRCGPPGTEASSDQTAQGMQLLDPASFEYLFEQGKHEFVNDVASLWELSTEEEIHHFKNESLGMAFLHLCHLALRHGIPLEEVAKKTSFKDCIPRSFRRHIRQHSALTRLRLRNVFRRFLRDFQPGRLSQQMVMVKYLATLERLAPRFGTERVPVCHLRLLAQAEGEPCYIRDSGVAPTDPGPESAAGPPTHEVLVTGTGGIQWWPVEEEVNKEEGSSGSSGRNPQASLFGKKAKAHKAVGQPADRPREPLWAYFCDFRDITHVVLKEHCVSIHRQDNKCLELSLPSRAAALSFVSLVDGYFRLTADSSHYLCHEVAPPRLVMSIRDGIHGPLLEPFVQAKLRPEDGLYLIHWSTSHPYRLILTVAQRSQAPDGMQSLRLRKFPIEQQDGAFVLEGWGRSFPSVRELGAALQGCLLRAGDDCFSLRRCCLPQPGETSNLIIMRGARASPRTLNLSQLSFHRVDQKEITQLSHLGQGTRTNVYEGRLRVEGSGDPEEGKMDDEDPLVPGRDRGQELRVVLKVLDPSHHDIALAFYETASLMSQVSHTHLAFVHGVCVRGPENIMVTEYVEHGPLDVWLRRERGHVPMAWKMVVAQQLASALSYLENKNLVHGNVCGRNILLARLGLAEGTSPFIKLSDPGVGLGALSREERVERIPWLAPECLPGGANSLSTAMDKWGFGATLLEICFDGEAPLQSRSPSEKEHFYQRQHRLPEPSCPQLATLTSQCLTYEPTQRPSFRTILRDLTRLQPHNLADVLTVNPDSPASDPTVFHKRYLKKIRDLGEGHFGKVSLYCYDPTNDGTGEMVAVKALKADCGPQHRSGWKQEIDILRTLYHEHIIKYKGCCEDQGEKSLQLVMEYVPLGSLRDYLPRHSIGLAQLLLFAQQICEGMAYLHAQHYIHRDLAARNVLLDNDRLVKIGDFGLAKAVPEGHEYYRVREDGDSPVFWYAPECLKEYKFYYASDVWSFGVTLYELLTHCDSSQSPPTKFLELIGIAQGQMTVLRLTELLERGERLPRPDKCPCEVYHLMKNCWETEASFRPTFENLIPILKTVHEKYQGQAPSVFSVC

As to `CCS(=O)(=O)N1CC(CC#N)(n2cc(-c3nc(Nc4ccc5c(c4)OCCN(C)CCO5)ncc3F)cn2)C1` [Example 37, 2-(1-(ethylsulfonyl)-3-(4-(5-fluoro-2-((4-methyl-3,4,5,6-tetrahydro-2H-benzo[b] [1,4,7]dioxazolin-9-yl)amino)pyrimidin-4-yl)-1H-pyrazol-1-yl)azetidin-3-yl)acetonitrile], the inhibition at 0.01 µM at TYK2, at JAK3 and at JAK2 was 40 to 79% throughout. Also, the inhibition at 0.1 µM on TYK2 is over 80%; on LRRK2, 25 to 39%; on JAK3, over 80%; at JAK2, over 80%; at CDK7, 25 to 39%; at JAK1, 40 to 79%. The half-maximal inhibitory concentration (IC50) at JAK3 and on JAK2 was under 50 nM each time.
For the molecule `CN1CCOCCOc2cc(Nc3nc(Nc4cccc(S(=O)(=O)NC(C)(C)C)c4)c4cc[nH]c4n3)ccc2OCC1` [Example 20, N-(tert-butyl)-3-((2-((7-methyl-2,3,6,7,8,9-hexahydro-5H-benzo[b][1,4,7]trioxa[10]azacyclododecan-13-yl)amino)-7H-pyrrolo[2,3-d]pyrimidin-4-yl)amino)benzenesulfonamide], the inhibition at 0.1 µM at TYK2 is 25 to 39%; at LRRK2 it was 40 to 79%; on JAK3, 40 to 79%; on JAK2, over 80%; at CDK7, 40 to 79%.
As to `CC(C)S(=O)(=O)c1ccccc1Nc1nc(Nc2ccc3c(c2)OCCOCCN(C)CCO3)nc2[nH]ncc12` [Example 11, N^4-(2-(isopropylsulfonyl)phenyl)-N^6-(7-methyl-2,3,6,7,8,9-hexahydro-5H-benzo[b][1,4, 7]trioxa[10]azacyclododecan-13-yl)-1H-pyrazolo[3,4-d]pyrimidin-4,6-diamine], the inhibition at 0.01 µM at TYK2 lay in the range of 25 to 39%; at JAK3, 40 to 79%; on JAK2 it was 40 to 79%. Also, the inhibition at 0.1 µM was over 80% at TYK2; 40 to 79% on LRRK2; over 80% on JAK3; over 80% at JAK2; 40 to 79% at CDK7.
Take `CN1CCOCCOc2ccc(Nc3nc(Nc4cccc(S(=O)(=O)NC(C)(C)C)c4)c4cc[nH]c4n3)cc2OCC1` [Example 19, N-(tert-butyl)-3-((2-((7-methyl-2,3,6,7,8,9-hexahydro-5H-benzo[b][1,4,7]trioxa[10]azacyclododecan-12-yl)amino)-7H-pyrrolo[2,3-d]pyrimidin-4-yl)amino)benzenesulfonamide]: the inhibition at 0.1 µM at TYK2 is 25 to 39%; on LRRK2 it was over 80%; at JAK3 it was 40 to 79%; at JAK2, over 80%; at CDK7, 40 to 79%. Moreover, the inhibition at 0.01 µM on LRRK2 and at JAK2 was 40 to 79% each time. Besides, the 50% inhibitory concentration (IC50) against LRRK2 was under 50 nM; at JAK2 it was under 50 nM; on CDK7 (kinase activity assay, Table 3), under 50 nM.
`CN1CCOCCOc2ccc(Nc3ncc(F)c(-c4cnn(C(CC#N)C5CCCC5)c4)n3)cc2OCC1` (centres unmarked) [Example 42, 3-cyclopentyl-3-(4-(5-fluoro-2-((7-methyl-2,3,6,7,8,9-hexahydro-5H-benzo[b][1,4,7]trioxa[10]azacyclododecan-12-yl)amino)pyrimidin-4-yl)-1H-pyrazol-1-yl)propanenitrile]: the values for the inhibition at 0.01 µM at TYK2, at JAK2 and at CDK7 were over 80%, over 80% and 25 to 39%, respectively.
With `CC(C)S(=O)(=O)c1ccccc1Nc1nc(Nc2ccc3c(c2)OCCN(C)CCOCCO3)nc2[nH]ccc12` [Example 53, N^4-(2-(isopropylsulfonyl)phenyl)-N^2-(7-methyl-2,3,6,7,8,9-hexahydro-5H-benzo[b][1,4,7]trioxa[10]azacyclododecan-12-yl)-7H-pyrrolo[2,3-d]pyrimidin-2,4-diamine], the inhibition at 0.01 µM was over 80% at LRRK2, 40 to 79% at JAK3, 40 to 79% at JAK2 and over 80% at CDK7.
With `CN1CCOCCOc2cc(Nc3nc(Nc4cccc(S(N)(=O)=O)c4)c4cc[nH]c4n3)ccc2OCC1` [Example 67, 3-((2-((7-methyl-2,3,6,7,8,9-hexahydro-5H-benzo[b][1,4,7]trioxa[10]azacyclododecan-13-yl)amino)-7H-pyrrolo[2,3-d]pyrimidin-4-yl)amino)benzenesulfonamide], the inhibition at 0.1 µM is over 80% on LRRK2, 25 to 39% at JAK3, 40 to 79% on JAK2 and 40 to 79% on CDK7.
For `CC(C)S(=O)(=O)c1ccccc1Nc1nc(Nc2ccc3c(c2)OCCN(C)CCO3)nc2[nH]ncc12` [Example 36, N^4-(2-(isopropylsulfonyl)phenyl)-N^6-(4-methyl-3,4,5,6-tetrahydro-2H-benzo[b] [1,4,7]dioxazolin-9-yl)-1H-pyrazolo[3,4-d]pyrimidin-4,6-diamine], the inhibition at 0.1 µM on LRRK2 is over 80%; on JAK3, 25 to 39%; at JAK2 it was 40 to 79%; on CDK7, 40 to 79%. Further, the half-inhibitory concentration (IC50) at LRRK2 is under 50 nM.
Consider `CN1CCOCCOc2cc(Nc3nc(-c4cn(C)c5ccccc45)c4cc[nH]c4n3)ccc2OCC1` [Example 23, 7-methyl-N-(4-(1-methyl-1H-indol-3-yl)-7H-pyrrolo[2,3-d]pyrimidin-2-yl)-2,3,6,7,8,9-hexahydro-5H-benzo[b][1,4,7]trioxa[10]azacyclododecan-13-amine], for which the inhibition at 0.1 µM at TYK2 was 25 to 39%; at LRRK2 it was 40 to 79%; at JAK3 it was 40 to 79%; on JAK2, over 80%; at CDK7 it was 40 to 79%.
Consider `CN1CCOc2ccc(Nc3nc(-c4ccc(C(=O)NCC#N)cc4)c4cc[nH]c4n3)cc2OCC1` [Example 2], for which the values for the inhibition at 0.1 µM at TYK2, at JAK3 and on CDK7 were over 80%, over 80% and 25 to 39%, respectively. Moreover, on JAK3, the IC50 is under 50 nM.
